These results are taken from US6133292A, “Diaryl-5-alkyl-5-methyl-2-(5H)-furanones as selective cyclooxygenase-2-inhibitors” (Merck Frosst Canada & Co., priority 1998, dated 2000).

The target in assay [1] is COX-1 (Homo sapiens, UniProt P23219). As to the kind of experiment: Human whole blood assay, COX-1 (clotting-induced TxB2 production). It is filed as cell-based. The arrangement: platelets in whole blood contain a large amount of the COX-1 enzyme; from tissue; host or cells: fresh human whole blood without anticoagulant, platelets. To be noted: clotting-induced TxB2, 1 hour at 37° C, read-out: HWB Cox-1 (IC50). Here is the method: (§1) Human whole blood provides a protein and cell-rich milieu appropriate for the study of biochemical efficacy of anti-inflammatory compounds such as selective COX-2 inhibitors. […] This is consistent with the observation that COX-2 inhibitors have no effect on PGE2 production in normal blood. These inhibitors are active only after incubation of human whole blood with LPS, which induces COX-2. This assay can be used to evaluate the inhibitory effect of selective COX-2 inhibitors on PGE2 production. As well, platelets in whole blood contain a large amount of the COX-1 enzyme. Immediately following blood clotting, platelets are activated through a thrombin-mediated mechanism. This reaction results in the production of thromboxane B2 (TXB2) via activation of COX-1. Thus, the effect of test compounds on TxB2 levels following blood clotting can be examined and used as an index for COX-1 activity. Therefore, the degree of selectivity by the test compound can be determined by measuring the levels of PGE2 after LPS induction (COX-2) and TxB2 following blood clotting (COX-1) in the same assay.
B. COX-1 (Clotting-induced TxB2 production)
Fresh blood is collected into vacutainers containing no anticoagulants. […] The tubes are vortexed and incubated at 37° C. for 1 hour to allow blood to clot. At the end of incubation, serum is obtained by centrifugation (12,000 x g for 5 min.). A 100 μL aliquot of serum is mixed with 400 μL of methanol for protein precipitation. The supernatant is obtained and is assayed for TxB2 using a enzyme immunoassay kit (Cayman, #519031) according to the manufacturer's instruction. […]

Assay [2] concerns the target T1, COX-2 (Homo sapiens, UniProt P35354).
T1 sequence (P35354 18-604): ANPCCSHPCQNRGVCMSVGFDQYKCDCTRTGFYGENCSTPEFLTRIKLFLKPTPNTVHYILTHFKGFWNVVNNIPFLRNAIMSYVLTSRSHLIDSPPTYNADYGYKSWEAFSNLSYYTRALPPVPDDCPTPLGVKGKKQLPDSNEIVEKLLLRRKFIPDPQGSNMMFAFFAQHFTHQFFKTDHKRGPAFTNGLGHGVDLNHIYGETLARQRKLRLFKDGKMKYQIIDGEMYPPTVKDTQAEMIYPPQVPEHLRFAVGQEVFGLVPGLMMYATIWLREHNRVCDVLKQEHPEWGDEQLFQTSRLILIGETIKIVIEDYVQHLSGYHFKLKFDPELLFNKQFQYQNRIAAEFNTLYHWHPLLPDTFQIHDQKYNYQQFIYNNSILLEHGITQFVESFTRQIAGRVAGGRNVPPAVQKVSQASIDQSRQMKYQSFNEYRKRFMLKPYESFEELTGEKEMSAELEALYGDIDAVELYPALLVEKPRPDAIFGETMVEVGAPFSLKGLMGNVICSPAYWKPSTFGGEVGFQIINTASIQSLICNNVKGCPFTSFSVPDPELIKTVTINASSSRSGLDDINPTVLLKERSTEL
As to the kind of experiment: Human whole blood assay, COX-2 (LPS-induced PGE2 production). The arrangement: incubation of human whole blood with LPS, which induces COX-2; from tissue; host or cells: fresh heparinized human whole blood from male and female volunteers, LPS-stimulated. To be noted: 24 hours at 37° C, read-out: HWB Cox-2 (IC50, inhibition of PGE2 production). The assay is classed as cell-based. Here is the method: as §1
A. COX-2 (LPS-induced PGE9 production)
Fresh blood is collected in heparinized tubes by venipuncture from both male and female volunteers. The subjects have no apparent inflammatory conditions and have not taken any NSAIDs for at least 7 days prior to blood collection. Plasma is immediately obtained from a 2 mL blood aliquot to use as blank (basal levels of PGE2). The remaining blood is incubated with LPS (100 μg/ml final concentration, Sigma Chem, #L-2630 from E. coli; diluted in 0.1% BSA (Phosphate buffered saline) for 5 minutes at room temperature. Five hundred μL aliquots of blood are incubated with either 2 μL of vehicle (DMSO) or 2 μL of a test compound at final concentrations varying from 10 nM to 30 μM for 24 hours at 37° C. At the end of the incubation, the blood is centrifuged at 12,000 x g for 5 minutes to obtain plasma. A 100 μL aliquot of plasma is mixed with 400 μL of methanol for protein precipitation. The supernatant is obtained and is assayed for PGE2 using a radioimmunoassay kit (Amersham, RPA#530) after conversion of PGE2 to its methyl oximate derivative according to the manufacturer's procedure.
Compounds of the present invention are inhibitors of COX-2 and are thereby useful in the treatment of COX-2 mediated diseases as enumerated above. The activities of the compounds against cyclooxygenase may be seen in the representative results shown below. In the assay, inhibition is determined by measuring the amount of prostaglandin E2 (PGE2) synthesized in the presence of arachidonic acid, COX-1 or COX-2 and a putative inhibitor. The IC50 values represent the concentration of putative inhibitor required to lower PGE2 synthesis to 50% of that obtained as compared to the uninhibited control.

Some results are limits rather than exact numbers.

Sequence of COX-1 (P23219 24-599): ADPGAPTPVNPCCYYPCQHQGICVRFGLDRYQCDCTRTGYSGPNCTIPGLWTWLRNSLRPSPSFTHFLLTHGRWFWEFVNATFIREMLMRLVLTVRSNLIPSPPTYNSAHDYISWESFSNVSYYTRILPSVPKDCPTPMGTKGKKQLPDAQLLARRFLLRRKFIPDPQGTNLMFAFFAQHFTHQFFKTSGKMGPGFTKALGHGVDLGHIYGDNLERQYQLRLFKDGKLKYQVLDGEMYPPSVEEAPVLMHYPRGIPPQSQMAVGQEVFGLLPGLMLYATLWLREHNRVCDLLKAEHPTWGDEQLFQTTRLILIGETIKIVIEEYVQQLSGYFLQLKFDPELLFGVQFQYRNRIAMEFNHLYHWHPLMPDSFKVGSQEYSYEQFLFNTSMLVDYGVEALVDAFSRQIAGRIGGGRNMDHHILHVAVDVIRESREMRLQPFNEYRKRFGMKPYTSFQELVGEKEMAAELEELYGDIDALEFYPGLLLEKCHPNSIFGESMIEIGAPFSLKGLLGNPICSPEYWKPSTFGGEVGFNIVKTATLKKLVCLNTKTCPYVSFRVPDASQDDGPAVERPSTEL

As to `CC[C@@]1(C)OC(=O)C(c2ccc(F)cc2)=C1c1ccc(S(C)(=O)=O)cc1` [e, (5R)-5-ethyl-3-(4-fluorophenyl)-5-methyl-4-[4-(methylsulfonyl)phenyl]-2,5-dihydro-2-furanone], the IC50 (usually the concentration that inhibits the measured activity by half) turned out to be 46 µM in assay [1] and 0.13 µM in assay [2].

For `CCCC1(C)OC(=O)C(c2cccc(F)c2)=C1c1ccc(S(C)(=O)=O)cc1` (stereo not drawn) [o, 3-(3-fluorophenyl)-5-methyl-4-[4-(methylsulfonyl)phenyl]-5-propyl-2,5-dihydro-2-furanone], the IC50 in assay [2] is 3.55 µM.

For `CCC1(CC)OC(=O)C(c2ccccc2)=C1c1ccc(S(C)(=O)=O)cc1` [t, 5,5-diethyl-4-[4-(methylsulfonyl)phenyl]-3-phenyl-2,5-dihydro-2-furanone, reference compound], the IC50 in assay [2] turned out to be 12.2 µM.

Take `CCC1(CC)OC(=O)C(c2ccc(F)cc2)=C1c1ccc(S(C)(=O)=O)cc1` [u, 5,5-diethyl-3-(4-fluorophenyl)-4-[4-(methylsulfonyl)phenyl]-2,5-dihydro-2-furanone, reference compound]: the IC50 in assay [2] was determined as 13.9 µM.

As to `CCCC1(C)OC(=O)C(c2ccc(F)c(F)c2)=C1c1ccc(S(C)(=O)=O)cc1` (stereo not drawn) [p, 3-(3,4-difluorophenyl)-5-methyl-4-[4-(methylsulfonyl)phenyl]-5-propyl-2,5-dihydro-2-furanone], the IC50 in assay [2] came to 2.44 µM.

As for `CCCC1(C)OC(=O)C(c2ccc(F)cc2)=C1c1ccc(S(C)(=O)=O)cc1` (stereo not drawn) [n, 3-(4-fluorophenyl)-5-methyl-4-[4-(methylsulfonyl)phenyl]-5-propyl-2,5-dihydro-2-furanone], the results for the IC50 in assay [1] and in assay [2] were more than 90 µM and 2.51 µM, respectively.

With `CC[C@]1(C)OC(=O)C(c2ccc(F)c(F)c2)=C1c1ccc(S(C)(=O)=O)cc1` [i, (5S)-3-(3,4-difluorophenyl)-5-ethyl-5-methyl-4-[4-(methylsulfonyl)phenyl] -2,5-dihydro-2-furanone], the IC50 was determined as 46.4 µM in assay [1] and 0.53 µM in assay [2].

On to `CC[C@]1(C)OC(=O)C(c2ccc(F)cc2)=C1c1ccc(S(C)(=O)=O)cc1` [d, (5S)-5-ethyl-3-(4-fluorophenyl)-5-methyl-4-[4-(methylsulfonyl)phenyl]-2,5-dihydro-2-furanone], for which the figures for the half-maximal inhibitory concentration (IC50) in assay [1] and in assay [2] were 8.3 µM and 0.31 µM, respectively.

Take `CC[C@@]1(C)OC(=O)C(c2ccc(F)c(F)c2)=C1c1ccc(S(C)(=O)=O)cc1` [h, (5R)-3-(3,4-difluorophenyl)-5-ethyl-5-methyl-4-[4-(methylsulfonyl)phenyl] -2,5-dihydro-2-furanone]: the IC50 in assay [1] was found to be 76 µM; in assay [2], 1.55 µM.

Consider `CCC1(C)OC(=O)C(c2ccc(F)cc2)=C1c1ccc(S(C)(=O)=O)cc1` (stereo not drawn) [c, 5-ethyl-3-(4-fluorophenyl)-5-methyl-4-[4-(methylsulfonyl)phenyl]-2,5-dihydro-2-furanone], for which the IC50 is more than 30 µM in assay [1] and 0.59 µM in assay [2].

Turning to `CC1(C)OC(=O)C(c2ccc(F)cc2)=C1c1ccc(S(C)(=O)=O)cc1` [Compound T3-1, 3-(4-fluorophenyl)-5,5-dimethyl-4-[4-(methylsulfonyl)phenyl]-2,5-dihydro-2-furanone, reference compound], the IC50 is 86.1 µM in assay [1] and less than 0.37 µM in assay [2].
